According to patent US20060083784A1, “Amorphous pharmaceutical compositions” (SmithKline Beecham Corporation, priority 2002, published 2006):
Values joined by “and” are separate entries in the source; they are usually repeats but may differ in a detail not shown here. Equal values may be shown once.

Experiments:
[1] = In vitro dissolution assay (modified USP 4 flow cell), Compound I samples; format: physicochemical; conditions: water and acetonitrile (8:2), 37° C., UV 275 nm, hemihydrate
Protocol: (§1) The equipment used for this procedure is a modified USP 4, the major differences being: 1. low volume cell. 2. stirred cell. 3. retaining filters which are adequate at retaining sub micron material. The total run time is 40 minutes. 2.5 mg of drug (weigh proportionally more formulated material).
(§2) Flow Cell Description: Swinnex filter assemblies obtained from Millipore, having 0.2 micron Cellulose Nitrate membranes. (Millipore, Mass.) as internal filters. The internal volume of the cell is approximately 2 ml. A Small PTFE stirrer customized to fit the Swinnex assembly (Radleys Lab Equipment Halfround Spinvane F37136) is used. The dissolution medium at a flow rate of 5 ml/min is used. The whole set up is placed at a thermostat of 37° C. The drug concentration is measured by passing the eluent through a UV detector having a flow cell dimension of 10 mm. The UV detection is carried out at an appropriate wavelength for the drug.
(§3) The experimentation is designed to evaluate drug dissolution rate. As such it is unlikely with poorly soluble drugs, and with water as the dissolution medium, that 100% of the drug will dissolve in the 40 minute duration of the test. To determine the extent of drug solubility over this period one collects all 200 ml of solution that elutes from the dissolution cell.
In vitro dissolution rates of samples 1.1, 1.2 and 1.3 were determined using the protocol described in the experimental section. The dissolution medium was a mixture of water and acetonitrile (8:2), and the wavelength used for drug detection 275 nm.

[2] = In vitro dissolution assay (modified USP 4 flow cell), Compound II samples; format: physicochemical; conditions: 0.1M HCl, 37° C., UV 244 nm
Protocol: as §1, §2
as §3, with “cell. Using a conventional UV spectrophotometer, this solution is compared against a reference solution of 2.5 or 4 mg of active agent dissolved in a suitable medium.” for “cell.”
In vitro dissolution rates of samples 2.1, 2.2, 2.3, 2.4, 2.5 and 2.6 were determined using the protocol described in the experimental section. The dissolution medium was 0.1M HCl, and the wavelength used for drug detection 244 nm. An unmilled lot of Compound II was used for comparison.

| % Drug Dissolved 10 min ([2]; 10 min) [%] | % Drug Dissolved 20 min ([2]; 20 min) [%] | % Drug Dissolved 30 min ([2]; 30 min) [%] | % Drug Dissolved 40 min ([2]; 40 min) [%] | Compound | % Drug Dissolved 10 min ([1]; 10 min) | % Drug Dissolved 20 min ([1]; 20 min) | % Drug Dissolved 30 min ([1]; 30 min) | % Drug Dissolved 40 min ([1]; 40 min) |
| --- | --- | --- | --- | --- | --- | --- | --- | --- |
| – | – | – | – | 6-Acetyl-3,4-dihydro-2,2-dimethyl-trans(+)-4-(4-fluorobenzoylamino)-2H-benzo[b]pyran-3-ol hemihydrate [Compound I] | 17.4% and 12.1% | 24.3% and 18.2% | 29.4% and 23.2% | 33.8% and 27.8% |
| 3.8 | 6.3 | 8.5 | 10.7 | CC[C@H](NC(=O)c1c(O)c(-c2ccccc2)nc2ccccc12)c1ccccc1.Cl [Compound II, 3-Hydroxy-2-phenyl-N-[(1S)-1-phenylpropyl]-4-quinolinecarboxamide monohydrochloride] | – | – | – | – |
